Reference: ChEMBL document CHEMBL3044885, “Synthesis and fungicidal activity against Rhizoctonia solani of 2-alkyl (Alkylthio)-5-pyrazolyl-1,3,4-oxadiazoles (Thiadiazoles)” (2000)

Legend:
[1] = test system: Rhizoctonia solani; assay: Fungicidal activity against Rhizoctonia solani inoculated on compound pre-treated fifth-leaf stage rice seedlings through foliar spraying assessed as inhibition of rice sheath blight disease at 500 ppm measured 4 days post fungal inoculation
[2] = test system: Rhizoctonia solani; assay: Fungicidal activity against Rhizoctonia solani inoculated on compound pre-treated fifth-leaf stage rice seedlings through foliar spraying assessed as inhibition of rice sheath blight disease at 100 ppm measured 4 days post fungal inoculation

SMILES	inhibition at 500 ppm [1]	inhibition at 100 ppm [2]
CCc1nn(C)c(-c2nnc(S)s2)c1Cl	100%	90%
CCc1nn(C)c(-c2nnc(SC)s2)c1Cl	90%	90%
CCSc1nnc(-c2c(Cl)c(CC)nn2C)s1	90%	90%
CCCSc1nnc(-c2c(Cl)c(CC)nn2C)s1	70%	70%
C=CCSc1nnc(-c2c(Cl)c(CC)nn2C)s1	50%	25%
CCCCCSc1nnc(-c2c(Cl)c(CC)nn2C)s1	70%	25%
CCc1nn(C)c(-c2nnc(S)o2)c1Cl	25%	0%
CCc1cc(-c2nnc(S)o2)n(C)n1	50%	25%
CCc1nn(C)c(-c2nnc(SC)o2)c1Cl	90%	70%
CCCSc1nnc(-c2c(Cl)c(CC)nn2C)o1	90%	50%
CCCCCSc1nnc(-c2c(Cl)c(CC)nn2C)o1	70%	25%
CCCCCCCSc1nnc(-c2c(Cl)c(CC)nn2C)o1	50%	50%
CCCCCCCCSc1nnc(-c2c(Cl)c(CC)nn2C)o1	50%	50%
CCOC(=O)C(C)Sc1nnc(-c2c(Cl)c(CC)nn2C)o1 (configuration not stated)	0%	0%
CCc1cc(-c2nnc(SC)o2)n(C)n1	90%	50%
CCSc1nnc(-c2cc(CC)nn2C)o1	90%	50%
CCCSc1nnc(-c2cc(CC)nn2C)o1	70%	25%
CCCCCSc1nnc(-c2cc(CC)nn2C)o1	50%	0%
CCOC(=O)C(C)Sc1nnc(-c2cc(CC)nn2C)o1 (configuration not stated)	25%	0%
CCc1nn(C)c(-c2n[nH]c(=O)o2)c1Cl	0%	0%
CCc1nn(C)c(-c2nn(C)c(=O)o2)c1Cl	25%	0%
CCc1nn(C)c(-c2nnc(CCl)o2)c1Cl	90%	50%
CCc1nn(C)c(-c2nnc(C(F)(F)F)o2)c1Cl	70%	25%
CCc1nnc(-c2c(Cl)c(CC)nn2C)o1	70%	25%
CCCCc1nnc(-c2c(Cl)c(CC)nn2C)o1	70%	25%
COC(=O)Nc1nc2ccccc2[nH]1 [CARBENDAZIM]	100%	100%
